Our source for the IC50 values is article PMC6044923 (ACS Omega, 2017).

The target of the assay is amyloid-β (Aβ(1–42)) (Homo sapiens, UniProt P05067). Put plainly: SPR aggregation assay. Type of assay: biochemical.
Chain of amyloid-β (Aβ(1–42)) (P05067 672-713): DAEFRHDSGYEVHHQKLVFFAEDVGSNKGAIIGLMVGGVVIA

Compound `C[n+]1ccc(-c2c3nc(c(-c4cc[n+](C)cc4)c4ccc([nH]4)c(-c4cc[n+](C)cc4)c4nc(c(-c5cc[n+](C)cc5)c5ccc2[nH]5)C=C4)C=C3)cc1` [TMPyP, 5,10,15,20-tetrakis(N-methyl-4-pyridyl)porphyrin] came in with an IC50 of 0.43 µM.
